{"source": "paper PMC6827146", "about": "“Short-Term Low Temperature Induces Nitro-Oxidative Stress that Deregulates the NADP-Malic Enzyme Function by Tyrosine Nitration in Arabidopsis thaliana” (Antioxidants, 2019)", "target": "T1, cytosolic NADP-ME2 (recombinant Arabidopsis NADP-malic enzyme 2) (Arabidopsis thaliana, UniProt Q9LYG3)", "T1 construct": "full-length cDNA (1785 bp PCR product) in pALEXb; E. coli", "T1 sequence (Q9LYG3 1-588)": "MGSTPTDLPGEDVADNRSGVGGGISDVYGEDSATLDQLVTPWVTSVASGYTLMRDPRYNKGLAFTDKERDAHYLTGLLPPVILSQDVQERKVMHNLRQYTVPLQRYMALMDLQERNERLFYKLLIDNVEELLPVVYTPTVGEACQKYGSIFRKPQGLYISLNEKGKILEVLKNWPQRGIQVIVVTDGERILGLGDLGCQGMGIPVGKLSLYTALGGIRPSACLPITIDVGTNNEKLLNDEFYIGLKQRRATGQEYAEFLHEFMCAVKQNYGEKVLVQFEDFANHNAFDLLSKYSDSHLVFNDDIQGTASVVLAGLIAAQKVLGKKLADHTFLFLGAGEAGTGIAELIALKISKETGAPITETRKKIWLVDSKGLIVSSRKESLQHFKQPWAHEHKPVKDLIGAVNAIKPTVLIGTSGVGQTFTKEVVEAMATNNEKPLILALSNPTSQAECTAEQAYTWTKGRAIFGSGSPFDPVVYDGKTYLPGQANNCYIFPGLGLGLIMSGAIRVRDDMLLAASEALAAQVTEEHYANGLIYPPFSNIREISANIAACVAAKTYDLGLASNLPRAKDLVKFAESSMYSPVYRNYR", "assay": "spectrophotometric NADP reduction at […] nm after preincubation with peroxynitrite donor", "format": "biochemical", "conditions": "covalent (Tyr-73 nitration); peroxynitrite generated in situ from donor SIN-1, so concentration is that of the donor; 37 °C, 1 h preincubation; assay pH 7.6, 25 °C, 2 mM MgCl2, 0.8 mM NADP, 1 mM L-mal", "data": [{"substance": "ONOO^−", "values": [{"measurement": "% inhibition with 5 mM SIN-1 (donor)", "value": 56, "unit": "%"}]}]}
